Experiments:
PD-L1 [1] = test: Western blot of PD-L1 in total cell lysates and exosomes of HeLa cells; format: cell-based; settings: for 6J1-induced exosomal PD-L1 secretion: 1 μM, 24 h
Method: PD-L1 has been previously shown to be secreted outside the cell through exosomes. HeLa cells are plated on coverslips in 24-well plates and stained with the anti-PD-L1 antibody on ice for 1 h. At the indicated times after being incubated at a warm medium at 37° C., cells are fixed and stained with antibodies against CD63 or Rab27a. […] Cells are treated with or without ionomycin (1 μM) for 48 h. The supernatant is collected and subjected to western blot analysis. […] Since the amphisome, which is formed by the fusion of the autophagosome with the MVB/late endosome, has been implicated in extracellular vesicles secretion, and PD-L1 is found to be associated with LC3B during PD-L1 trafficking (FIG. 2a), inventors examine whether the autophagosome formation is involved in exosomal PD-L1 secretion. Thus, inventors knock out the expression of Rab27A, LC3B or ATG4B in HeLa cells and collect their supernatant respectively for western blot analysis.
Furthermore, HeLa cells are treated with or without Bafilomycin A1 (10 nM), or Torin 1 (100 nM) for 48 h. The cell lysates and supernatant are collected for western blot analysis. […] In contrast, Torin1, an autophagy activator, has little effect on total and exosomal PD-L1 levels (FIG. 2g). […] On the other hand, blockage on the fusion between lysosomes and late endosomes or autophagosomes may induce PD-L1 secretion via exosomes.
(§1) It has previously been shown that interfering with endosomal trafficking promotes exosome secretion. Moreover, PD-L1 has been reported to be enriched in exosomes and secreted outside the cell. Thus, inventors speculate that 6J1 may induce the secretion of the PD-L1 trapped in the endosomal compartments via exosomes. To determine whether 6J1 may induce the secretion of PD-L1 via exosomes, HeLa cells are treated with or without 6J1 (1 μM) for 24 h. The supernatant is collected. Inventors purify the exosomes from the supernatant of HeLa cells by sequential centrifugation. The concentration of extracellular vesicle is determined using a Nanosight nanoparticle analyzer. And HeLa cells are treated with or without 6J1 (1 μM) for 48 h. The cell and supernatant are collected for Western Blot analysis. […] Moreover, the activity of Rab27a in HeLa cells treated with or without 6J1 (1 μM) is examined with a GST-SHD pulldown assay.
Moreover, ATG5- or LC3-knockout HeLa cells are treated with or without 6J1 (1 μM) for 24 h. The supernatant is collected, and the concentration of the extracellular vesicle is determined using a Nanosight nanoparticle analyzer. The exosomes are also collected and subjected to western blot analysis of the EVs marker and PD-L1 in FIG. 7a. The live cells are also labeled with an anti-PD-L1 antibody in FIG. 7b and subjected to flow cytometry analysis in FIG. 7c. […] In addition, inventors assess whether other autophagy-related genes, e.g., ATG4B, ATG7, Beclin1, and Vps34 are involved in 6J1-mediated exosomal PD-L1 secretion. ATG4B-, ATG7-, Beclin1-, or VPS34-knockout HeLa cells are treated with or without 6J1 (1 μM) for 24 h. The supernatant is collected, and the concentration of extracellular vesicle is determined using a Nanosight nanoparticle analyzer. The exosomes are also collected and subjected to western blot analysis of the EVs marker and PD-L1 in FIG. 7d. The live cells are also labeled with an anti-PD-L1 antibody and subjected to flow cytometry analysis in FIG. 7e.

PD-L1 [2] = test: PD-L1 colocalization imaging in PD-L1-GFP HeLa cells; format: cell-based; settings: 1 μM, 24 h
Method: Next, inventors assess if 6J1 can compromise PD-L1 trafficking. PDL1-GFP stable expressing HeLa cells are treated with or without 6J1 (1 μM) for 24 h. Cells are fixed and stained with Rab5 or EEA1. Their quantifications of the colocalization are shown in FIGS. 4d and 4e, respectively. […] Inventors thus further quantify cell membrane PD-L1 levels in live cells treated with or without 6J1 by flow cytometry or confocal imaging.
as §1
(§2) HeLa cells are treated with or without 6J1. After 6 h, cells are collected for western blot analysis of LC3 and p62. […] In addition, ATG5-knockout HeLa cells are transfected with PD-L1-GFP and LC3-RFP, and then treated with or without 6J1 (1 μM) for 24 h. Cells are fixed and imaged. […] Furthermore, LC3B-knockout HeLa cells are transfected with PD-L1-GFP, and then treated with or without 6J1 (1 μM) for 24 h. Cells are fixed and stained with antibodies against Rab5 (FIG. 6d) or Rab27a (FIG. 6e).

LC3 and p62 = test: Autophagy readouts: LC3/p62 western blot and GFP-RFP-LC3 puncta in HeLa cells; format: cell-based; settings: 6 h
Method: as §2

B16-F10 cells = test: B16-F10 melanoma model in C57BL/6J mice; format: in vivo, mouse; settings: 30 mg/kg, daily, oral gavage, 4 weeks
Method: Inventors also examine the anti-cancer effect of 6J1 in a melanoma xenograft mouse model, by the subcutaneous injection of B16-F10 cells in syngeneic C57BL mice. B16-F10 cells are subcutaneously injected into the flank of female C57BL/6J mice. The mice are randomly divided (n=6 per group). They are treated with either buffer or 6J1 (30 mg/kg, daily, oral gavage) after tumors reach around 5 mm for 4 weeks. After 4 weeks, the primary tumors are collected for analysis. […] In addition, a flow cytometry-based quantification of the levels of plasma membrane PD-L1 in the primary tumor is performed in FIG. 15e. […] In B16-F10 tumors, fold change of CD3+CD8+ T-cell populations, and percentage of intracellular IFN-γ in the isolated tumor-infiltrating lymphocytes (TILs) are determined by flow cytometry analysis in FIGS. 15f and 15g.

[3] = Subchronic toxicity in Balb/C mice, 4 weeks oral; format: in vivo, mouse; settings: 30 mg/kg per day
Method: Last, inventors investigate the in vivo toxicity of 6J1 in mice. 6-week-old Balb/C mice are treated with […] (PEG400/Ethanol/tween80, 1:1:1) or 6J1 (30 mg/kg, per day) via oral route for 4 weeks. Clinical observations, e.g., food consumption, body weight changes, and ophthalmic exams, are performed every three days. Tissue weight index (tissue weight/body weight×100%) are measured. […] 6J1 has no effects on mouse weight gain and weights of various organs (FIGS. 18a and 18b). At the end of experiment, the blood is collected from mice in each group for AST, ALT, and ALP measurement. The mice are then sacrificed, and the major organs are isolated, examined, and subjected to H&E staining.

[4] = GFP-RFP-LC3-expressing HeLa cells, 1 μM

OCCOCCN(c1ccccc1)c1nc(N/N=C/c2cccc(I)c2)nc(N2CCOCC2)n1 [Compound 6J1]
6J1-induced exosomal PD-L1 secretion (PD-L1 [1]; ATG4B-, ATG7-, Beclin1- or VPS34-knockout HeLa cells): fails to abolish
6J1-induced exosomal PD-L1 secretion (PD-L1 [1]; ATG5- or LC3B-knockout HeLa cells): Neither ATG5 nor LC3B knockout impairs
exosomal PD-L1 level (PD-L1 [1]; HeLa cells, 48 h, ionomycin 1 μM, Bafilomycin A1 10 nM, Torin 1 100 nM, 6J1 1 μM): increases PD-L1 level in exosomes
6J1-induced PD-L1 puncta (PD-L1 [2]; ATG5-knockout HeLa cells): no effect on 6J1-induced PD-L1 puncta
PD-L1/LC3B colocalization in 6J1-treated cells (PD-L1 [2]; ATG5-knockout HeLa cells): abolishes this colocalization between PD-L1 and LC3B
6J1-induced PD-L1 puncta and PD-L1 colocalization with RAB5 or RAB27A (PD-L1 [2]; LC3B-knockout HeLa cells): LC3B knockout does not affect
accumulation of PD-L1 in vesicles colocalized with early endosome markers EEA1 and RAB5 (PD-L1 [2]; PD-L1-GFP HeLa cells): clearly induces the accumulation of PD-L1 within vesicle-like structures in the cytoplasm
colocalization between PD-L1 and RAB11 (recycling endosome marker) (PD-L1 [2]; PD-L1-GFP HeLa cells): markedly decreases the colocalization between PD-L1 and RAB11
colocalization of PD-L1 with exosomal markers TSG101, CD63, Rab27A (PD-L1 [2]; PD-L1-GFP HeLa cells): significantly induces the colocalization of PD-L1 with the exosomal markers
colocalization of PD-L1-containing vesicles with LC3B puncta (PD-L1 [2]; control HeLa cells with PD-L1-GFP and LC3-RFP): strongly colocalized with LC3B puncta
formation of yellow LC3B puncta (LC3 and p62; [4]): significantly induces the formation of yellow LC3B puncta
red-only LC3B puncta (LC3 and p62; [4]): no red-only LC3B puncta are observed
level of LC3B-II and P62 (LC3 and p62; HeLa cells, western blot): markedly induced an increase in the level of LC3B-II and P62
animal's body weight (B16-F10 cells): without affecting the animal's body weight
expression of IFN-γ in tumor-infiltrating lymphocytes (B16-F10 cells): only subtly increases the expression of IFN-γ
growth of B16-F10 tumors (B16-F10 cells): markedly inhibits the growth of B16-F10 tumors
levels of PD-L1 at the cell surface of the primary tumors (B16-F10 cells): significantly decreases the levels of PD-L1 at the cell surface of the primary tumors
percentage of tumor-infiltrating CD8+ T cell populations (B16-F10 cells): markedly increases the percentage of tumor-infiltrating CD8+ T cell populations
behavior [3]: no signs of behavior abnormality
liver function test (AST, ALT, ALP in blood) [3]: no apparent changes in liver function test
mouse weight gain [3]: no effects
pathological changes in major organs (H&E staining) [3]: no signs of pathological changes in major organs
weights of various organs (tissue weight index) [3]: no effects
